Assay results published in patent US4994376A, “Detection of bacteroides gingivalis” (priority 1987, dated 1991).
Read-outs that look alike come from different tables or passages of the source. Peptide text beside a SMILES is read from it.

Tests used:
Format in all cases: biochemical
C. ochracea = settings: strain ATCC 27872; β-naphthylamine liberated after 60 minutes, 37° C.
Summary of the method: (§1)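 N-CBz-glycyl-glycyl-L-arginine-β-naphthylamide was hydrolysed for 1 hour at 37 °C, then coupled with Fast Garnet GBC (0.5 mg/ml) in 1M acetic acid buffer, pH 4.2, containing 10% Tween 20. After 15 minutes at room temperature, absorbance was read at 525 nm against a no-enzyme blank; activity is given as nmol β-naphthylamine released per 60 min.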

[1] = tested on: Capnocytophaga gingivalis; settings: strain ATCC 33624; β-naphthylamine liberated after 60 minutes, 37° C.
Summary of the method: as §1

B. mel. ss. intermedius = settings: β-naphthylamine liberated after 60 minutes, 37° C.
Summary of the method: as §1

B. asaccharolyticus = settings: β-naphthylamine liberated after 60 minutes, 37° C.
Summary of the method: as §1

B. loescheii = settings: β-naphthylamine liberated after 60 minutes, 37° C.
Summary of the method: as §1

B. levii = settings: β-naphthylamine liberated after 60 minutes, 37° C.
Summary of the method: as §1

Bacteroides gingivalis = settings: β-naphthylamine liberated after 60 minutes, 37° C.
Summary of the method: as §1

V. parvula = settings: strain ATCC 10790; β-naphthylamine liberated after 60 minutes, 37° C.
Summary of the method: (§2)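 Aminopeptidase values express the nanomoles of β-naphthylamine freed from N-CBz-glycyl-glycyl-L-arginine-β-naphthylamide during a 60-minute, 37° C incubation. The liberated amine was coupled with stabilized diazonium salt Fast Garnet GBC and measured at 525 nm against an enzyme-free blank.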

Veillonella sp. = settings: strain SE1M2; β-naphthylamine liberated after 60 minutes, 37° C.
Summary of the method: as §2

A. viscosus = settings: β-naphthylamine liberated after 60 minutes, 37° C.
Summary of the method: as §2

Campylobacter sputorum = settings: strain Ba1-21; β-naphthylamine liberated after 60 minutes, 37° C.
Summary of the method: as §2

Streptococcus mitis = settings: β-naphthylamine liberated after 60 minutes, 37° C.
Summary of the method: as §2

S. mutans = settings: strain ATCC 25175; β-naphthylamine liberated after 60 minutes, 37° C.
Summary of the method: as §2

"Anaerobic vibrio" = settings: strain SN2T2; β-naphthylamine liberated after 60 minutes, 37° C.
Summary of the method: as §2

A. seminis = settings: strain ATCC 15768; β-naphthylamine liberated after 60 minutes, 37° C.
Summary of the method: as §2

[2] = tested on: Actinobacillus actinomycetemcomitans; settings: β-naphthylamine liberated after 60 minutes, 37° C.
Summary of the method: as §2

Fusobacterium nucleatum = settings: β-naphthylamine liberated after 60 minutes, 37° C.
Summary of the method: as §2

S. sanguis = settings: β-naphthylamine liberated after 60 minutes, 37° C.
Summary of the method: as §2

Actinomyces israeli = settings: β-naphthylamine liberated after 60 minutes, 37° C.
Summary of the method: as §2

Eikenella corrodens = settings: strain BP1-6; β-naphthylamine liberated after 60 minutes, 37° C.
Summary of the method: as §2

Lactobacillus casei = experiment: Aminopeptidase activity on β-naphthylamide substrates; settings: β-naphthylamine liberated after 60 minutes, 37° C.
Summary of the method: as §2

S. salivarius = experiment: as above; settings: β-naphthylamine liberated after 60 minutes, 37° C.
Summary of the method: as §2

L. fermentum = experiment: as above; settings: strain ATCC 11581; β-naphthylamine liberated after 60 minutes, 37° C.
Summary of the method: as §2

A. suis = experiment: as above; settings: strain ATCC 15557; β-naphthylamine liberated after 60 minutes, 37° C.
Summary of the method: as §2

F. periodonticum = experiment: as above; settings: strain EK1-15; β-naphthylamine liberated after 60 minutes, 37° C.
Summary of the method: as §2

Haemophilus aphrophilus = experiment: as above; settings: β-naphthylamine liberated after 60 minutes, 37° C.
Summary of the method: as §2

A. equuli = experiment: as above; settings: strain ATCC 19392; β-naphthylamine liberated after 60 minutes, 37° C.
Summary of the method: as §2

CC(C)C[C@H](N)C(=O)NCC(=O)O [Leu-Gly, Leucyl-glycine] (H-Leu-Gly-OH)
Aminopeptidase activity (C. ochracea): 9 nmol
Aminopeptidase activity [1]: 8 nmol
Aminopeptidase activity (B. mel. ss. intermedius; strain ATCC 25261): 9 nmol
Aminopeptidase activity (B. mel. ss. intermedius; strain ATCC 33563): 2 nmol
Aminopeptidase activity (B. mel. ss. intermedius; strain NCTC 9336): 11 nmol
Aminopeptidase activity (B. asaccharolyticus; strain 536B): 49 nmol
Aminopeptidase activity (B. asaccharolyticus; strain ATCC 18569): 25 nmol
Aminopeptidase activity (B. asaccharolyticus; strain ATCC 25260): 37 nmol
Aminopeptidase activity (B. asaccharolyticus; strain ATCC 27067): 51 nmol
Aminopeptidase activity (B. asaccharolyticus; strain NY446): 0 nmol
Aminopeptidase activity (B. loescheii; strain ATCC 15930): 20 nmol
Aminopeptidase activity (B. loescheii; strain VPI4196): 58 nmol
Aminopeptidase activity (B. levii; strain 18-1-5): 47 nmol
Aminopeptidase activity (B. levii; strain 18-1-8): 51 nmol
Aminopeptidase activity (Bacteroides gingivalis; strain 9-14K-1): 6 nmol
Aminopeptidase activity (Bacteroides gingivalis; strain 11-1-2): 47 nmol
Aminopeptidase activity (Bacteroides gingivalis; strain 381): 76 nmol
Aminopeptidase activity (Bacteroides gingivalis; strain 1021): 16 nmol
Aminopeptidase activity (Bacteroides gingivalis; strain ATCC 33277): 48 nmol
Aminopeptidase activity (Bacteroides gingivalis; strain FAYE 19m-1): 6 nmol
Aminopeptidase activity (V. parvula): 0 nmol
Aminopeptidase activity (Veillonella sp.): 0 nmol
Aminopeptidase activity (A. viscosus; strain ATCC 19246): 0 nmol
Aminopeptidase activity (A. viscosus; strain T14V): 0 nmol
Aminopeptidase activity (Campylobacter sputorum): 0 nmol
Aminopeptidase activity (Streptococcus mitis; strain ATCC 9815): 0 nmol
Aminopeptidase activity (Streptococcus mitis; strain ATCC 15909): 0 nmol
Aminopeptidase activity (Streptococcus mitis; strain ATCC 15911): 124 nmol
Aminopeptidase activity (Streptococcus mitis; strain ATCC 15912): 0 nmol
Aminopeptidase activity (S. mutans): 0 nmol
Aminopeptidase activity ("Anaerobic vibrio"): 0 nmol
Aminopeptidase activity (A. seminis): 0 nmol
Aminopeptidase activity ([2]; strain 67): 2 nmol
Aminopeptidase activity ([2]; strain 75): 0 nmol
Aminopeptidase activity ([2]; strain ATCC 29523): 0 nmol
Aminopeptidase activity ([2]; strain NCTC 9709): 0 nmol
Aminopeptidase activity ([2]; strain Y4): 0 nmol
Aminopeptidase activity (Fusobacterium nucleatum; strain 2): 2 nmol
Aminopeptidase activity (Fusobacterium nucleatum; strain ATCC 25586): 0 nmol
Aminopeptidase activity (Fusobacterium nucleatum; strain D31A-24): 0 nmol
Aminopeptidase activity (S. sanguis; strain ATCC 10556): 0 nmol
Aminopeptidase activity (S. sanguis; strain ATCC 10557): 0 nmol
Aminopeptidase activity (Actinomyces israeli; strain ATCC 12103): 0 nmol
Aminopeptidase activity (Actinomyces israeli; strain DK2-3): 0 nmol
Aminopeptidase activity (Eikenella corrodens): 0 nmol
Aminopeptidase activity (Lactobacillus casei; strain ATCC 7469): 0 nmol
Aminopeptidase activity (Lactobacillus casei; strain ATCC 11578): 2 nmol
Aminopeptidase activity (Lactobacillus casei; strain ATCC 11582): 1 nmol
Aminopeptidase activity (S. salivarius; strain ATCC 9759): 0 nmol
Aminopeptidase activity (S. salivarius; strain ATCC 25975): 0 nmol
Aminopeptidase activity (L. fermentum): 2 nmol
Aminopeptidase activity (A. suis): 0 nmol
Aminopeptidase activity (F. periodonticum): 0 nmol
Aminopeptidase activity (Haemophilus aphrophilus; strain ATCC 13252): 0 nmol
Aminopeptidase activity (Haemophilus aphrophilus; strain ATCC 19415): 0 nmol
Aminopeptidase activity (Haemophilus aphrophilus; strain NCTC 5908): 0 nmol
Aminopeptidase activity (A. equuli): 0 nmol

Cl.N=C(N)NCCC[C@H](NC(=O)CNC(=O)CNC(=O)OCc1ccccc1)C(=O)Nc1ccc2ccccc2c1 [N-CBz-Gly-Gly-Arg, N-carbobenzoxy-glycyl-glycyl-L-arginine-β-naphthylamide hydrochloride]
Aminopeptidase activity (C. ochracea): 8 nmol
Aminopeptidase activity [1]: 7 nmol
Aminopeptidase activity (B. mel. ss. intermedius; strain ATCC 25261): 0 nmol
Aminopeptidase activity (B. mel. ss. intermedius; strain ATCC 33563): 1 nmol
Aminopeptidase activity (B. mel. ss. intermedius; strain NCTC 9336): 1 nmol
Aminopeptidase activity (B. asaccharolyticus; strain 536B): 1 nmol
Aminopeptidase activity (B. asaccharolyticus; strain ATCC 18569): 0 nmol
Aminopeptidase activity (B. asaccharolyticus; strain ATCC 25260): 0 nmol
Aminopeptidase activity (B. asaccharolyticus; strain ATCC 27067): 0 nmol
Aminopeptidase activity (B. asaccharolyticus; strain NY446): 2 nmol
Aminopeptidase activity (B. loescheii; strain ATCC 15930): 1 nmol
Aminopeptidase activity (B. loescheii; strain VPI4196): 0 nmol
Aminopeptidase activity (B. levii; strain 18-1-5): 0 nmol
Aminopeptidase activity (B. levii; strain 18-1-8): 1 nmol
Aminopeptidase activity (Bacteroides gingivalis; strain 9-14K-1): 61 nmol
Aminopeptidase activity (Bacteroides gingivalis; strain 11-1-2): 92 nmol
Aminopeptidase activity (Bacteroides gingivalis; strain 381): 91 nmol
Aminopeptidase activity (Bacteroides gingivalis; strain 1021): 44 nmol
Aminopeptidase activity (Bacteroides gingivalis; strain ATCC 33277): 84 nmol
Aminopeptidase activity (Bacteroides gingivalis; strain FAYE 19m-1): 143 nmol
Aminopeptidase activity (V. parvula): 0 nmol
Aminopeptidase activity (Veillonella sp.): 0 nmol
Aminopeptidase activity (A. viscosus; strain ATCC 19246): 0 nmol
Aminopeptidase activity (A. viscosus; strain T14V): 0 nmol
Aminopeptidase activity (Campylobacter sputorum): 0 nmol
Aminopeptidase activity (Streptococcus mitis; strain ATCC 9815): 0 nmol
Aminopeptidase activity (Streptococcus mitis; strain ATCC 15909): 0 nmol
Aminopeptidase activity (Streptococcus mitis; strain ATCC 15912): 0 nmol
Aminopeptidase activity (S. mutans): 0 nmol
Aminopeptidase activity ("Anaerobic vibrio"): 1 nmol
Aminopeptidase activity (A. seminis): 1 nmol
Aminopeptidase activity ([2]; strain 67): 0 nmol
Aminopeptidase activity ([2]; strain 75): 0 nmol
Aminopeptidase activity ([2]; strain ATCC 29523): 0 nmol
Aminopeptidase activity ([2]; strain NCTC 9709): 1 nmol
Aminopeptidase activity ([2]; strain Y4): 0 nmol
Aminopeptidase activity (Fusobacterium nucleatum; strain 2): 3 nmol
Aminopeptidase activity (Fusobacterium nucleatum; strain ATCC 25586): 0 nmol
Aminopeptidase activity (Fusobacterium nucleatum; strain D31A-24): 2 nmol
Aminopeptidase activity (S. sanguis; strain ATCC 10556): 0 nmol
Aminopeptidase activity (S. sanguis; strain ATCC 10557): 0 nmol
Aminopeptidase activity (Actinomyces israeli; strain ATCC 12103): 0 nmol
Aminopeptidase activity (Actinomyces israeli; strain DK2-3): 0 nmol
Aminopeptidase activity (Eikenella corrodens): 0 nmol
Aminopeptidase activity (Lactobacillus casei; strain ATCC 7469): 0 nmol
Aminopeptidase activity (Lactobacillus casei; strain ATCC 11578): 0 nmol
Aminopeptidase activity (Lactobacillus casei; strain ATCC 11582): 0 nmol
Aminopeptidase activity (S. salivarius; strain ATCC 9759): 0 nmol
Aminopeptidase activity (S. salivarius; strain ATCC 25975): 0 nmol
Aminopeptidase activity (L. fermentum): 0 nmol
Aminopeptidase activity (A. suis): 0 nmol
Aminopeptidase activity (F. periodonticum): 0 nmol
Aminopeptidase activity (Haemophilus aphrophilus; strain ATCC 13252): 1 nmol
Aminopeptidase activity (Haemophilus aphrophilus; strain ATCC 19415): 1 nmol
Aminopeptidase activity (Haemophilus aphrophilus; strain NCTC 5908): 0 nmol
Aminopeptidase activity (A. equuli): 0 nmol
